In patent publication US8791258B2, “Pro-fluorescent probes” (The Regents of the University of California, priority 2008, dated 2014):

Columns and labels:
[1] = Absorption and emission properties, fluorescence quantum yield; type: physicochemical; conditions: absorption maximum 350 nm; 20 mM HEPES, pH 7
Protocol: (§1) Millipore water was used to prepare all aqueous solutions. All spectroscopic measurements were performed in 20 mM HEPES buffer, pH 7. Absorption spectra were recorded using a Varian Cary 50 spectrophotometer (Walnut Creek, Calif.). Fluorescence spectra were recorded using a Photon Technology International Quanta Master 4 L-format scanning spectrofluorometer (Lawrenceville, N.J.) equipped with an LPS-220B 75-W xenon lamp and power supply, A-1010B lamp housing with integrated igniter, switchable 814 photon-counting/analog photomultiplier detection unit, and MD5020 motor driver. Samples for absorption and fluorescence measurements were contained in 1-cm×1-cm quartz cuvettes (1.4- or 3.5-mL volume, Starna, Atascadero, Calif.).
as §1, with “recorded on” for “recorded using”, “Creek, Calif.) and fluorescence” for “Creek, Calif.). Fluorescence”, “and emission” for “and fluorescence”, “cuvettes (1.5-mL” for “cuvettes (1.4- or 3.5-mL”, “Calif.). Fluorescence quantum yields were determined by reference to fluorescein in 0.1M NaOH (Φ=0.95).” for “Calif.).”

[2] = Fluorescence response to H2O2 in 20 mM HEPES, pH 7
Protocol: as §1
The Peroxysensor reagents were evaluated under simulated physiological conditions (20 mM HEPES buffer, pH 7). […] FIG. 4, FIG. 5 and FIG. 6 show the fluorescence responses of PF1, PR1, and PX1, respectively, to H2O2.

[3] = Fluorescence response to various ROS (H2O2 selectivity); conditions: 100 μM ROS, 20 mM HEPES, pH 7, 25° C.
Protocol: FIG. 7 is the fluorescence response of 5 μM PF1 to various ROS (10 mM O2^−, 100 μM for all other ROS). .OH and .Ot-Bu were generated by reaction of Fe^2+ with H2O2 or tert-butyl hydroperoxide (TBHP), respectively. NO was delivered using S-nitrosocysteine (SNOC). Spectra were acquired in 20 mM HEPES, pH 7, and all data were obtained after incubation with the appropriate ROS at 25° C. for 1 h. Collected emission was integrated between 460 and 700 nm (λexc=450 nm).
FIG. 8 is the fluorescence response of 5 μM PR1 to various ROS (10 mM O2^−, 100 μM for all other ROS). .OH and .O^tBu were generated by reaction of Fe^2+ with H2O2 or tert-butyl hydroperoxide (TBHP), respectively. NO was delivered using S-nitrosocysteine (SNOC). Spectra were acquired in 20 mM HEPES, pH 7, and all data were obtained after incubation with the appropriate ROS at 25° C. for 30 min. Collected emission was integrated between 570 and 800 nm (λexc=560 nm).
FIG. 9 is the fluorescence response of 10 μM PX1 to various ROS (10 mM O2^−, 100 μM for all other ROS). .OH and .Ot-Bu were generated by reaction of Fe^2+ with H2O2 or tert-butyl hydroperoxide (TBHP), respectively. NO was delivered using S-nitrosocysteine (SNOC). Spectra were acquired in 20 mM HEPES, pH 7, and all data were obtained after incubation with the appropriate ROS at 25° C. for 1 h. Collected emission was integrated between 370 and 600 nm (λexc=350 nm).
as §1
FIG. 7, FIG. 8 and FIG. 9 compare the relative reactivities of boronate-based PF1, PR1, and PX1, respectively, toward various ROS.

HEK cells = assay: Confocal and two-photon fluorescence imaging of H2O2 in live HEK cells; conditions: for intracellular background fluorescence of probe-loaded cells before H2O2: 5-10 μM probe, 2-10 min at 25° C.; for intracellular fluorescence after addition of H2O2: probe-loaded cells, 10-100 μM H2O2
Protocol: (a) Fluorescence image of HEK cells incubated with 5 μM PF1 for 5 min at 25° C. (b) Fluorescence image of PF1-stained HEK cells treated with 100 μM H2O2 for 11 min at 25° C. Excitation was provided at 488 nm, and emission was collected in a window from 505 to 580 nm. Scale bar=27 μm.
(a) Fluorescence image of HEK cells incubated with 10 μM PR1 for 10 min at 25° C. (b) Fluorescence image of PR1-stained HEK cells treated with 100 μM H2O2 for 30 min at 25° C. Excitation was provided at 543 nm, and emission was collected in a window from 548 to 644 nm. Scale bar=18 μm.
(a) Fluorescence image of HEK cells incubated with 10 μM PX1 for 2-3 min at 25° C. (b) Fluorescence image of PX1-stained HEK cells treated with 100 μM H2O2 for 30 min at 25° C. Two-photon excitation was provided at 704 nm, and emission was collected in a window from 420 to 500 nm. Scale bar=18 μm.
HEK 293T cells were cultured in Dulbecco's Modified Eagle Medium (DMEM, Invitrogen, Carlsbad, Calif.) supplemented with 10% Fetal Bovine Serum (FBS, Invitrogen), glutamine (2 mM), and penicillin/streptomycin (50 μg/ml, Invitrogen). One day before imaging, cells were passed and plated on 18-mm glass coverslips coated with poly-L-lysine (50 μg/ml, Sigma, St. Louis, Mo.). Immediately before the experiments, cells were washed with PBS buffer, incubated with the probe in PBS, and imaged.
Confocal fluorescence imaging was performed with a Zeiss LSM510 META laser scanning microscope containing an Axioplan 2 MOT upright microscope and a 40× water-immersion objective lens. Excitation of PF1-loaded cells at 488 nm was carried out with an argon ion laser, and emission was Collected in a window from 505 nm to 580 nm using a META detection system. Excitation of PR1-loaded cells at 543 nm was carried out with a HeNe laser, and emission was collected in a window from 548 nm to 644 nm using a META detector. PF1 or PR1 were incubated with live cell samples for 5 to 10 min. Addition of H2O2 (10 to 100 μM) to cell samples was performed directly on the microscope stage by bath application to the media.
Two-photon fluorescence imaging of PX1 was carried out using an inverted Zeiss LSM510 Axiovert 200M microscope with a NeoFLUAR 40×/1.3 NA oil-immersion objective lens. Samples were excited by 704-nm pulses from a mode-locked Ti:Sapphire laser (Tsunami, SpectraPhysics, 120-150 fs pulse width, 80 MHz repetition rate). The emission light was filtered with a 80-nm wide bandpass filter centered at 460 nm (460BP40, Chroma) and detected with the non-descanned detector (NDD) of the LSM510.

[4] = system: embryonic rat hippocampal neurons (E18); assay: Fluorescence imaging of H2O2 in cultured hippocampal neurons; type: cell-based
Protocol: Hippocampal primary cultures were prepared from embryonic day 18 (E18) rat embryos according to a previously reported protocol. Briefly, hippocampi were dissociated by treatment with trypsin for 20 min at 37° C. followed by washing. The neuronal cells were plated on glass coverslips (Carolina Biological, Burlington, N.C.) coated with poly-L-lysine ([…], Sigma) and cultured in neurobasal medium supplemented with 2 mM Glutamax and 2% B-27 (Invitrogen). After 10 days in vitro, the cultures were washed with PBS, incubated with the probe in PBS, and imaged.
Finally, the successful use of the Peroxysensor probes for monitoring changes in intracellular H2O2 concentrations in mammalian cell lines using either confocal or two-photon microscopy led us to evaluate their utility in primary culture systems. […] Control neurons without PF1 and/or H2O2 treatment show no detectable fluorescence enhancements. These experiments confirm that PF1 can be used in living neurons to detect oxidative stress events.

Structure (SMILES): CC1(C)OB(c2ccc3c(=O)c4ccc(B5OC(C)(C)C(C)(C)O5)cc4oc3c2)OC1(C)C [PX1, 3,6-Bis(pinacolatoboron)xanthone]
- extinction coefficient ε at 350 nm [1]: 4700 M⁻¹ cm⁻¹
- increase in integrated fluorescence intensity / integrated emission on reaction with H2O2 (dynamic range) [2]: 52 fold
- higher response for H2O2 over NO ([3]; NO delivered using SNOC): ca. 6 fold
- higher response for H2O2 over tert-butyl hydroperoxide (TBHP) [3]: > 100 fold
- intracellular background fluorescence of probe-loaded cells before H2O2 (HEK cells): minimal intracellular background fluorescence
- intracellular fluorescence after addition of H2O2 (HEK cells): Prompt increases in intracellular blue fluorescence

Structure (SMILES): CC1(C)OB(c2ccc3c(c2)Oc2cc(B4OC(C)(C)C(C)(C)O4)ccc2C32OC(=O)c3ccccc32)OC1(C)C [PF1, 3′,6″-Bis(pinacolatoboron)fluoran]
- background fluorescence of probe-loaded neurons ([4]; 10 μM probe, 5 min at 25° C.): negligible background fluorescence
- intracellular fluorescence under simulated oxidative stress ([4]; 300 μM H2O2 for 30 min at 25° C.): notable increases in intracellular fluorescence
- higher response for H2O2 over .OH ([3]; .OH from Fe2+ with H2O2): > 3 fold
- higher response for H2O2 over .OtBu ([3]; .OtBu from Fe2+ with TBHP): > 15 fold
- cell viability during imaging (HEK cells): cells are viable throughout the imaging experiments
- membrane permeability / cell entry (HEK cells): can passively enter live cells
- intracellular background fluorescence of probe-loaded cells before H2O2 (HEK cells): negligible intracellular background fluorescence
- intracellular fluorescence after addition of H2O2 (HEK cells): prompt increases in intracellular green fluorescence
